Experimental data taken from patent US3976768A, “Fortimicin A” (Abbott Laboratories, priority 1973, dated 1976).
Converted amounts (≈) assume the structure as drawn. “Also recorded” adds a separate entry of the source.

Tests used:
Escherichia coli KY 8310 = assay: Antibacterial spectrum, agar dilution method (pH 8.0); type: cell-based; settings: KY8310, resistant to Chloramphenicol, Streptomycin, Kanamycin, Gentamicin, Kanamycin B, Paromomycin, Tetracycline and Spectinomycin, read-out: Minimum inhibitory concentration
[1] = test system: Proteus mirabilis Finland 9 KY 4293; assay: as above; type: cell-based; settings: FINLAND9KY4293, read-out: Minimum inhibitory concentration
[2] = test system: Proteus mirabilis No. 825 KY 4292; assay: as above; type: cell-based; settings: NO.825KY4292, read-out: Minimum inhibitory concentration
[3] = test system: Staphylococcus aureus KY 8957; assay: as above; type: cell-based; settings: KY8957, resistant to Chloramphenicol, Streptomycin, Kanamycin B, Tetracycline and Paromomycin, read-out: Minimum inhibitory concentration
[4] = test system: Pseudomonas aeruginos KY 8510; assay: as above; type: cell-based; settings: KY8510, pH 8, read-out: Minimum inhibitory concentration
[5] = test system: Klebsiella pneumoniae ATCC 10031; assay: as above; type: cell-based; settings: ATCC10031, read-out: Minimum inhibitory concentration
Escherichia coli KY 8332 = assay: as above; type: cell-based; settings: KY8332, resistant to Kanamycin and Tobramycin, read-out: Minimum inhibitory concentration
[6] = test system: Pseudomonas aeruginosa BMH No. 1; assay: as above; type: cell-based; settings: BMHNO.1, read-out: Minimum inhibitory concentration
[7] = test system: Staphylococcus aureus ATCC 6538P; assay: as above; type: cell-based; settings: ATCC6538P, read-out: Minimum inhibitory concentration
[8] = test system: Staphylococcus aureus KY 8953; assay: as above; type: cell-based; settings: KY8953, resistant to Streptomycin, Kanamycin, Paromomycin, Tetracycline, Neomycin, Kanamycin B and Erythromycin, read-out: Minimum inhibitory concentration
Escherichia coli = assay: Antibacterial activity against resistant Escherichia coli (in words); type: cell-based; settings: Escherichia coli resistant to various known antibiotics
[9] = test system: Proteus rettgeri Hambrook KY 4289; assay: Antibacterial spectrum, agar dilution method (pH 8.0); type: cell-based; settings: Providencia rettgeri, read-out: Minimum inhibitory concentration
Proteus vulgaris KY 4296 = assay: as above; type: cell-based; settings: KY4296, resistant to nalidixic acid, read-out: Minimum inhibitory concentration
[10] = test system: Shigella sonnei ATCC 9290; assay: as above; type: cell-based; settings: ATCC9290, read-out: Minimum inhibitory concentration
[11] = test system: Proteus vulgaris ATCC 6897; assay: as above; type: cell-based; settings: ATCC6897, read-out: Minimum inhibitory concentration
[12] = test system: Escherichia coli Juhl KY 4286; assay: In vivo test on mice infected intraperitoneally with Escherichia coli, subcutaneous treatment; design: species or system mice infected with Escherichia coli Juhl KY 4286
Protocol: In this respect, in vivo tests have been conducted on mice infected intraperitoneally with Escherichia coli Juhl KY 4286. The thus infected mice were treated with various concentrations of Fortimicin A by subcutaneous […]. As a result the ED50 of Fortimicin A has been determined to be 6mg/kg. In view of the excellent antibacterial activity, the present substance, Fortimicin A, is considered to be useful in medical treatment as an antibacterial substance. Moreover, in view of the foregoing wide antibacterial spectrum, Fortimicin A may also be useful as a surface antibacterial agent.

Escherichia coli KY 8302 = assay: Antibacterial spectrum, agar dilution method (pH 8.0); type: cell-based; settings: KY8302, resistant to Chloramphenicol, Streptomycin, Kanamycin, Paromomycin, Tetracycline and Spectinomycin, read-out: Minimum inhibitory concentration
[13] = test system: Bacillus subtilis No. 10707; assay: as above; type: cell-based; settings: read-out: Minimum inhibitory concentration
Staphylococcus aureus = assay: Antibacterial activity against resistant Staphylococcus aureus (in words); type: cell-based; settings: Staphylococcus aureus resistant to various known antibiotics
[14] = test system: Staphylococcus aureus KY 8956; assay: Antibacterial spectrum, agar dilution method (pH 8.0); type: cell-based; settings: KY8956, resistant to Streptomycin, Paromomycin, Tetracycline, Erythromycin and Oleandomycin, read-out: Minimum inhibitory concentration
[15] = test system: Proteus morganii Jenkins KY 4298; assay: as above; type: cell-based; settings: Morganella morganii, read-out: Minimum inhibitory concentration
[16] = test system: Bacillus cereus var. mycoides ATCC 9463; assay: microbe, parasite or virus in culture; type: cell-based; settings: ATCC9463, pH 8, read-out: Minimum inhibitory concentration
Escherichia coli KY 8314 = assay: Antibacterial spectrum, agar dilution method (pH 8.0); type: cell-based; settings: KY8314, resistant to Streptomycin, read-out: Minimum inhibitory concentration
Escherichia coli ATCC 26 = assay: as above; type: cell-based; settings: ATCC26, read-out: Minimum inhibitory concentration
Escherichia coli KY 8327 = assay: as above; type: cell-based; settings: KY8327, pH 8, read-out: Minimum inhibitory concentration
[17] = test system: Proteus vulgaris Abbott JJ, KY 4295; assay: as above; type: cell-based; settings: read-out: Minimum inhibitory concentration
[18] = test system: Bacillus cereus ATCC 9634; assay: as above; type: cell-based; settings: ATCC9634, read-out: Minimum inhibitory concentration
Escherichia coli KY 8315 = assay: as above; type: cell-based; settings: KY8315, resistant to Streptomycin, Kanamycin, Paromomycin and Neomycin, read-out: Minimum inhibitory concentration
[19] = test system: Proteus mirabilis No. 39 KY 4290; assay: as above; type: cell-based; settings: NO.39KY4290, read-out: Minimum inhibitory concentration
[20] = test system: Gram-positive and Gram-negative bacteria; assay: Antibacterial activity against Gram-positive and Gram-negative bacteria (in words); type: cell-based
Escherichia coli KY 8331 = assay: Antibacterial spectrum, agar dilution method (pH 8.0); type: cell-based; settings: KY8331, resistant to Kanamycin, Ribostamycin, Neomycin, Paromomycin and Lividomycin, read-out: Minimum inhibitory concentration
[21] = test system: bacteria of the genus Proteus; assay: Antibacterial activity against bacteria of the genus Proteus (in words); type: cell-based
[22] = test system: Proteus rettgeri Booth KY 4288; assay: Antibacterial spectrum, agar dilution method (pH 8.0); type: cell-based; settings: Providencia rettgeri, read-out: Minimum inhibitory concentration
[23] = test system: Staphylococcus aureus KY 8942; assay: as above; type: cell-based; settings: KY8942, resistant to Kanamycin, Paramomycin, Streptomycin, Gentamicin and Nebramycin, read-out: Minimum inhibitory concentration
[24] = test system: Streptococcus faecalis ATCC 10541; assay: as above; type: cell-based; settings: Enterococcus faecalis, ATCC10541, read-out: Minimum inhibitory concentration
[25] = test system: Salmonella typhosa ATCC 9992; assay: as above; type: cell-based; settings: Salmonella enterica, pH 8, read-out: Minimum inhibitory concentration
[26] = test system: Staphylococcus aureus KY 8950; assay: as above; type: cell-based; settings: KY8950, resistant to Streptomycin, Tetracycline, Penicillin and sulfonamide, read-out: Minimum inhibitory concentration
[27] = Solubility of the free base; type: physicochemical

COC1C(O)C(N)C(OC2OC(C(C)N)CCC2N)C(O)C1N(C)C(=O)CN (centres unmarked) [Fortimicin A]
MIC (Escherichia coli KY 8310): 0.13 mg/L (≈ 0.321 µM)
MIC [1]: 0.8 mg/L (≈ 1.97 µM)
MIC [2]: 0.41 mg/L (≈ 1.01 µM)
MIC [3]: 0.32 mg/L (≈ 0.789 µM)
MIC [4]: 5 mg/L (≈ 12.3 µM)
MIC [5]: 0.08 mg/L (≈ 0.197 µM)
MIC (Escherichia coli KY 8332): 0.3 mg/L (≈ 0.74 µM)
MIC [6]: 5 mg/L (≈ 12.3 µM)
MIC [7]: 0.04 mg/L (≈ 0.0986 µM)
MIC [8]: 1.3 mg/L (≈ 3.21 µM)
Antibacterial activity (Escherichia coli): strong antibacterial activity
MIC [9]: 0.41 mg/L (≈ 1.01 µM)
MIC (Proteus vulgaris KY 4296): 0.41 mg/L (≈ 1.01 µM)
MIC [10]: 0.3 mg/L (≈ 0.74 µM)
MIC [11]: 0.16 mg/L (≈ 0.395 µM)
ED50 ([12]; Escherichia coli, JUHLKY4286, sc): 6 mg/kg
Therapeutic effects ([12]; therapy of infectious diseases caused by the tested bacteria): remarkable therapeutic effects
MIC (Escherichia coli KY 8302): 0.26 mg/L (≈ 0.641 µM)
MIC [13]: 0.02 mg/L (≈ 0.0493 µM)
Antibacterial activity (Staphylococcus aureus): strong antibacterial activity
MIC [14]: 0.32 mg/L (≈ 0.789 µM)
MIC [15]: 1.6 mg/L (≈ 3.95 µM)
MIC [16]: 0.6 mg/L (≈ 1.48 µM)
MIC (Escherichia coli KY 8314): 0.26 mg/L (≈ 0.641 µM)
MIC (Escherichia coli ATCC 26): 0.16 mg/L (≈ 0.395 µM)
MIC (Escherichia coli KY 8327): 0.13 mg/L (≈ 0.321 µM)
MIC [17]: 0.8 mg/L (≈ 1.97 µM)
MIC [18]: 0.6 mg/L (≈ 1.48 µM)
MIC (Escherichia coli KY 8315): 0.13 mg/L (≈ 0.321 µM)
MIC [19]: 0.8 mg/L (≈ 1.97 µM)
Antibacterial activity [20]: active upon Gram-positive and Gram-negative bacteria; also recorded: wide range of activity
MIC (Escherichia coli KY 8331): 0.3 mg/L (≈ 0.74 µM)
Antibacterial activity [21]: satisfactory antibacterial activity
MIC [22]: 0.8 mg/L (≈ 1.97 µM)
MIC [23]: 10 mg/L (≈ 24.7 µM)
MIC [24]: 10 mg/L (≈ 24.7 µM)
MIC [25]: 0.08 mg/L (≈ 0.197 µM)
MIC [26]: 1.3 mg/L (≈ 3.21 µM)
Solubility in organic solvents ([27]; chloroform, benzene, ethyl acetate, butyl acetate, ethyl ether, butanol, petroleum ether, n-hexane, etc., free base): insoluble
Solubility in ethanol and acetone ([27]; ethanol and acetone, free base): slightly soluble
Solubility in methanol ([27]; methanol, free base): soluble
Solubility in the ordinary organic solvents ([27]; ordinary organic solvents): poorly soluble
Solubility in water ([27]; water, free base): soluble; also recorded: very soluble

CNC1C(O)C(OC2OC(C(C)N)CCC2N)C(N)C(O)C1OC (centres unmarked) [Fortimicin B]
Antibacterial activity [20]: activity against Gram-positive and Gram-negative bacteria
